Patent US20170044521A1, “BIOMASS EXTRACTS AND METHODS THEREOF” (Lakeview Nutrition LLC, priority 2014, published 2017)
Read-outs that look alike come from different tables or passages of the source.

How the values were obtained:
[1] = Bioavailability study: absorption of DDGS phytochemicals in plasma of mice after oral gavage of DDGS extracts; conditions: oral gavage of 2 mL alcohol extract (AE) or oil extract (OE) of DDGS, plasma sampled at 0, 0.5, 1.0, 3.0, 7.0 and 24 hr, HPLC
Experimental: (§1) Thirty-six male CD-1 mice (22-24 g) were purchased from Charles River Labs (Wilmington, Mass.). Before the study, they were allowed acclimation for at least 3 days in an SPF facility. Animal housing, handling and procedures were conducted under the protocols or guidelines approved by the Institutional Animal Care and Use Committee (IACUC) of Cephrim Biosciences, Inc. (Woburn, Mass.). Three mice were housed in each cage. The temperature, humidity and light/dark cycle were well maintained at 68-76° F., 40-60% relative humidity, with a 12 h light/dark cycle. Mice were allowed free access to water and food.
(§2) On the first day of the study, the mice were randomly assigned into two groups, alcohol extract (AE, of DDGS) group and oil extract (OE, of DDGS) group. Each group of mice was further divided into 6 subgroups, representing 6 time points (i.e., 0 hr, 0.5 hr, 1.0 hr, 3.0 hr, 7.0 hr and 24 hr). Each of two extracts was given to each group of mice by oral gavage at the dosage of 2 mL for AE and 2 mL for OE. The time of dosing was set as the Time Zero. Blood samples were collected by cardiac puncture and were immediately transferred to a set of heparinized tubes.
(§3) Blood samples at Time-0 hr were collected right before dosing. And at each of rest 5 time points the Time-0.5 hr, -1.0 hr, -3.0 hr, -7.0 hr and −24 hr after the extracts were given, blood samples were collected from each subgroup (n=3). All blood samples were placed on ice after their collection and were spun at 14000 rpm/min. The top plasma were transferred into new pre-labeled tubes and the samples were stored at −70° C. until analysis.
(§4) Mice plasmas (150 pt) were mixed with 600 pt of hexane and shaken at 200 rpm for 10 min. The mixtures were centrifuged at 14,000 rpm for 6 min. The supernatant was evaporated to dryness under nitrogen and replaced with 100 pt of methanol. […]
(§5) Compounds were separated on a C30 reverse-phase column (250×4.6 mm, 5 um) at a flow rate of 1 mL/min. […] The detection was conducted in a fluorescence detector with excitation of 292 nm and emission of 336 nm. […]

[2] = mouse, in vivo, po
Experimental: as §1, §2, §3, §4, §5

| SMILES | time of maximal absorption in plasma of mice after gastric infusion [1] [h] | time of maximal absorption in plasma of mice after gastric infusion [2] [h] |
| --- | --- | --- |
| Cc1c(O)cc2c(c1C)O[C@](C)(CCC[C@H](C)CCC[C@H](C)CCCC(C)C)CC2 [gamma-tocopherol] | 3 |  |
| CC(C)=CCC/C(C)=C/CC/C(C)=C/CC[C@]1(C)CCc2cc(O)cc(C)c2O1 [delta-tocotrienol] |  | 24 |
| Cc1c(C)c2c(c(C)c1O)CC[C@@](C)(CCC[C@H](C)CCC[C@H](C)CCCC(C)C)O2 [alpha-tocopherol] |  | 3 |
